Experiments:
Assay in all cases: relative viability (nuclei count vs DMSO), 5 days (fraction); higher = more cells survive
Apatinib + OSI-027 = compound: N#CC1(c2ccc(NC(=O)c3cccnc3NCc3ccncc3)cc2)CCCC1 [Apatinib] + COc1cccc2cc(-c3nc([C@H]4CC[C@H](C(=O)O)CC4)n4ncnc(N)c34)[nH]c12 [OSI-027] (partner 0.5 µM)
Method in brief: (§1)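 One day after seeding in 1536-well plates, lung cancer cell lines were dosed by pin tool. Dosing was either single-drug or a fixed anchor-drug dose plus five library-drug doses (not always all listed) in √10 steps. After 5 days, nuclei were stained in one fix-and-stain step and counted on 4× images, and relative viability is the nuclei count of treated wells over that of vehicle wells, given as the median of duplicate plates.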

Apatinib + Crizotinib = compound: N#CC1(c2ccc(NC(=O)c3cccnc3NCc3ccncc3)cc2)CCCC1 [Apatinib] + C[C@@H](Oc1cc(-c2cnn(C3CCNCC3)c2)cnc1N)c1c(Cl)ccc(F)c1Cl [Crizotinib] (partner 1 µM)
Method in brief: as §1

Metformin + Olaparib = compound: CN(C)C(=N)NC(=N)N [Metformin] + O=C(c1cc(Cc2n[nH]c(=O)c3ccccc23)ccc1F)N1CCN(C(=O)C2CC2)CC1 [Olaparib] (partner 8 µM)
Method in brief: as §1

Apatinib + Trametinib = compound: N#CC1(c2ccc(NC(=O)c3cccnc3NCc3ccncc3)cc2)CCCC1 [Apatinib] + CC(=O)Nc1cccc(-n2c(=O)n(C3CC3)c(=O)c3c(Nc4ccc(I)cc4F)n(C)c(=O)c(C)c32)c1 [Trametinib] (partner 0.02 µM)
Method in brief: as §1

Cell Line	relative viability (Apatinib + OSI-027; first compound 0.08 µM)	relative viability (Apatinib + OSI-027; first compound 0.253 µM)	relative viability (Apatinib + OSI-027; first compound 0.8 µM)	relative viability (Apatinib + OSI-027; first compound 2.53 µM)	relative viability (Apatinib + OSI-027; first compound 8 µM)	relative viability (Apatinib + Crizotinib; first compound 0.08 µM)	relative viability (Apatinib + Crizotinib; first compound 0.253 µM)	relative viability (Apatinib + Crizotinib; first compound 0.8 µM)	relative viability (Apatinib + Crizotinib; first compound 2.53 µM)	relative viability (Apatinib + Crizotinib; first compound 8 µM)	relative viability (Metformin + Olaparib; first compound 10 µM)	relative viability (Metformin + Olaparib; first compound 31.62 µM)	relative viability (Metformin + Olaparib; first compound 100 µM)	relative viability (Metformin + Olaparib; first compound 316.23 µM)	relative viability (Metformin + Olaparib; first compound 1000 µM)	relative viability (Apatinib + Trametinib; first compound 0.08 µM)	relative viability (Apatinib + Trametinib; first compound 0.253 µM)	relative viability (Apatinib + Trametinib; first compound 0.8 µM)	relative viability (Apatinib + Trametinib; first compound 2.53 µM)	relative viability (Apatinib + Trametinib; first compound 8 µM)
LK-2	0.217	0.197	0.157	0.205	0.167	0.243	0.218	0.212	0.237	0.242	0.79	0.509	0.644	0.734	0.873	0.605	0.671	0.75	0.793	0.395
LOU-NH91	0.636	0.667	0.599	0.619	0.676	0.76	0.751	0.722	0.69	0.629	0.859	0.894	0.865	0.883	0.845	0.826	0.745	0.716	0.717	0.729
COR-L 105	0.775	0.806	0.619	0.582	0.491	0.871	0.696	0.796	0.727	0.586	0.804	0.625	0.645	0.725	0.694	0.476	0.418	0.371	0.436	0.431
NCI-H1650		0.776	0.456	0.463	0.541	1.13	1.03	0.9	0.92	0.842	0.687	0.625	0.763	0.682	0.59	0.607	0.659	0.395	0.515	0.482
H3255	0.551	0.569	0.539	0.51	0.535	0.956	0.841	0.907	0.723	0.786	0.487	0.594	0.523	0.441	0.402	0.655	0.588	0.669	0.597	0.535
NCI-H2228	0.472	0.761	0.547	0.429	0.448	0.542	0.418	0.506	0.42	0.262	0.399	0.344	0.483	0.802	0.578	0.405	0.568	0.646	0.416	0.549
NCI-H1993	0.627	0.596	0.549	0.49	0.494	0.943	0.868	0.782	0.801	0.68	1.01	1.02	1.12	0.882	0.955	0.436	0.579	0.538	0.493	0.461
LCLC-103H	0.495	0.477	0.384	0.401	0.457	1.02	1.05	1.01	0.97	1.07	0.727	0.713	0.76	0.737	0.777	0.702	0.699	0.722	0.713	0.688
ChaGo-K-1	0.628	0.616	0.491	0.455	0.493		1.09	1.1	1.05	0.901	0.341	0.343	0.319	0.26	0.33	0.902	0.93	0.862	0.837	0.691
NCI-H441	0.609	0.625	0.541	0.436	0.339	0.789	0.756	0.809	0.416	0.426		0.575	0.387	0.356	0.374	0.52	0.46	0.434	0.442	0.503
NCI-H1651	0.782	0.867	0.647	0.683	0.599	0.916	0.86	0.84	0.8	0.733	0.151	0.159	0.144	0.16	0.146	0.84	0.874	0.821	0.75	0.684
NCI-H838	0.456	0.393	0.361	0.357	0.422	0.892	0.936	0.77	0.76	0.775	0.686	0.691	0.639	0.596	0.696	0.626	0.573	0.473	0.49	0.467
NCI-H1755	0.838	0.729	0.699	0.672	0.523	0.858	0.885	0.911	0.803	0.769	0.735	0.774	0.79	0.716	0.829	0.826	0.746	0.725	0.825	0.652
NCI-H1734	0.597	0.597	0.578	0.495	0.453	0.67	0.812	0.76	0.596	0.579	0.473	0.636	0.584	0.501	0.616	0.689	0.712	0.682	0.664	0.618
NCI-H2009	0.796	0.617	0.536	0.337	0.193	1.05	1.1	1.02	0.814	0.698	0.612	0.69	0.604	0.568	0.705	0.341	0.285	0.31	0.25	0.229
SW 1573	0.71	0.636	0.553	0.593	0.518	0.946	0.867	0.748	0.74	0.58	0.441	0.468	0.471	0.381	0.352	0.554	0.729	0.543	0.603	0.352
HARA	0.782	0.359	0.482	0.448	0.303	1.04	0.944	1.05	1.05	0.806	0.989	0.81	0.701	0.762	1.01	0.736	0.829	0.673		0.6

— the supplement of paper PMC10307832
